Reference: US20240409585A1, “MACROCYCLIC IMMUNOMODULATORS” (priority 2021, published 2024)
Numbered stars: 1 amine (or outer) side, 2 acyl side, 3 side chain; on linkers, the order of the positions; unused ones are H or OH. Bridge positions count the residues as written; N and C are the ends. Square brackets hold non-standard residues; d marks the D form. Peptide text beside a SMILES is read from it. * marks the point of attachment. ξ: configuration not given here. X29 = O=C([C@H](Cc1ccc(-c2cc(F)cc(F)c2)cc1)N[*:1])[*:2]; Phe(4-COOH) = N[C@@H](Cc1ccc(C(=O)O)cc1)C(=O)O; Bip = N[C@@H](Cc1ccc(-c2ccccc2)cc1)C(=O)O; Phe(3-Me) = Cc1cccc(C[C@H](N)C(=O)O)c1; Bta = N[C@@H](Cc1csc2ccccc12)C(=O)O; Val(3-OH) = CC(C)(O)[C@H](N)C(=O)O; aIle = CC[C@@H](C)[C@H](N)C(=O)O; 4Pal = N[C@@H](Cc1ccncc1)C(=O)O; Cha = N[C@@H](CC1CCCCC1)C(=O)O; Ile(3ξ) = CCC(C)[C@H](N)C(=O)O; aThr = C[C@H](O)[C@H](N)C(=O)O; Thr(3ξ) = CC(O)[C@H](N)C(=O)O; Carboxymethyl = O=C(O)C*; NMeA = CN[C@@H](C)C(=O)O; Nle = CCCC[C@H](N)C(=O)O; Orn = NCCC[C@H](N)C(=O)O; Dab = NCC[C@H](N)C(=O)O; Dap = NC[C@H](N)C(=O)O; Piv = CC(C)(C)C(=O)*

Target: T1, PE-labeled human PD-L1-Ig binding to Jurkat cell line over-expressing human PD-1 (Jurkat-PD-1) (Homo sapiens, UniProt Q15116)
T1 construct: expressed in transfected cells; host or cells: Jurkat
Assay: Jurkat-PD-1 Cell Binding High-Content Screening Assay (CBA): Method 1
Details: Jurkat-hPD-1 cells, PE-labeled PD-L1-Ig 20 nM final; read-out: Jurkat HPDL1 PD1 IC50 (uM) (Method 1)

T1 sequence (Q15116 25-288): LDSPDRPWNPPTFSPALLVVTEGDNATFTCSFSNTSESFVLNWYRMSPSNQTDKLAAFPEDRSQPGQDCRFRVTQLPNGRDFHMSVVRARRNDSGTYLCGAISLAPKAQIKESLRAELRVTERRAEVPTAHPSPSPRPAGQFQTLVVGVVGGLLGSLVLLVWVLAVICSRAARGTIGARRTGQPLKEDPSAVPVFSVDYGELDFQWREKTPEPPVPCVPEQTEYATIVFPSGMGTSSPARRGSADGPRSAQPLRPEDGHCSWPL

Row | SMILES | IC50 [µM]
1 | CCCC[C@@H]1NC(=O)[C@H](CCCNC(=N)N)NC(=O)[C@@H](CC(C)C)NC(=O)[C@H](C)N(C)C(=O)[C@H](CCCN)NC(=O)[C@H](Cc2ccc(-c3ccccc3)cc2)NC(=O)[C@H](C(C)C)NC(=O)[C@H](Cc2c[nH]c3ccccc23)NC(=O)[C@H](CC(=O)O)NC(=O)[C@H](Cc2ccc(O)cc2)NC(=O)[C@H](CC(N)=O)NC(=O)CSC[C@@H](C(=O)N[C@@H](C)C(N)=O)NC(=O)[C@H]([C@@H](C)O)NC(=O)[C@H](C(C)C)NC1=O [Compound 1289] ({CH2CO}-NYDWV[Bip][Orn][NMeA][dL]R[Nle]VTCA-NH2; thioether N-14) | 0.09
2 | CC(C)C[C@H]1NC(=O)[C@H](C)N(C)C(=O)[C@H](CCC(=O)O)NC(=O)[C@H](Cc2ccc(-c3ccccc3)cc2)NC(=O)[C@H](C(C)C)NC(=O)[C@H](Cc2c[nH]c3ccccc23)NC(=O)[C@H](CC(=O)O)NC(=O)[C@H](Cc2ccc(OCC(=O)O)cc2)NC(=O)[C@H](CC(N)=O)NC(=O)CSC[C@@H](C(=O)NCC(N)=O)NC(=O)[C@H](C(C)O)NC(=O)[C@H](C(C)C)NC(=O)[C@H](CC2CCCCC2)NC(=O)[C@H](CCN)NC1=O (stereo partly drawn) [Compound 2085] ({CH2CO}-NY(Carboxymethyl)DWV[Bip]E[NMeA][dL][Dab][Cha]V[Thr(3ξ)]CG-NH2; thioether N-14) | 0.01
3 | CC(C)C[C@@H]1NC(=O)[C@H](Cc2c[nH]c3ccccc23)NC(=O)[C@H](CC(=O)O)NC(=O)[C@H](Cc2ccncc2)NC(=O)[C@H](Cc2ccc(OCC(=O)O)cc2)NC(=O)CSC[C@@H](C(=O)N[C@@H](CC(N)=O)C(N)=O)NC(=O)[C@H](CO)NC(=O)[C@H](C(C)C)NC(=O)[C@H](CC2CCCCC2)NC(=O)[C@H](CCN)NC(=O)[C@@H](CC(C)C)NC(=O)[C@H](C)N(C)C(=O)[C@H](Cc2ccc(O)cc2)NC(=O)[C@H](Cc2ccc(-c3ccccc3)cc2)NC1=O [Compound 1906] ({CH2CO}-Y(Carboxymethyl)[4Pal]DWL[Bip]Y[NMeA][dL][Dab][Cha]VSCN-NH2; thioether N-14) | 0.05
4 | CC(C)C[C@@H]1NC(=O)[C@H](CCCNC(=N)N)NC(=O)[C@H](Cc2csc3ccccc23)NC(=O)[C@H](C)N(C)C(=O)[C@H](CCC(=O)O)NC(=O)[C@H](Cc2ccc(-c3ccccc3)cc2)NC(=O)[C@H](C(C)C)NC(=O)[C@H](Cc2c[nH]c3ccccc23)NC(=O)[C@H](CC(=O)O)NC(=O)[C@H](Cc2ccc(O)cc2)NC(=O)[C@H](Cc2ccccc2)NC(=O)CSC[C@@H](C(=O)N[C@@H](C)C(N)=O)NC(=O)[C@H]([C@@H](C)O)NC(=O)[C@H](C(C)C)NC1=O [Compound 1133] ({CH2CO}-FYDWV[Bip]E[NMeA][Bta]RLVTCA-NH2; thioether N-14) | 0.35
5 | Cc1cccc(C[C@@H]2NC(=O)[C@H](CC(=O)O)NC(=O)[C@H](Cc3ccc(OCC(=O)O)cc3)NC(=O)[C@H](Cc3ccc(OCC(=O)O)cc3)NC(=O)CSC[C@@H](C(=O)N[C@@H](C)C(N)=O)NC(=O)[C@H]([C@H](C)O)NC(=O)[C@H](C(C)C)NC(=O)[C@H](CC(C)C)NC(=O)[C@H](CCN)NC(=O)[C@@H](CC(C)C)NC(=O)[C@H](C)N(C)C(=O)[C@H](C(C)C)NC(=O)[C@H](Cc3ccc(-c4ccccc4)cc3)NC(=O)[C@H](C(C)C)NC2=O)c1 [Compound 1578] ({CH2CO}-Y(Carboxymethyl)Y(Carboxymethyl)D[Phe(3-Me)]V[Bip]V[NMeA][dL][Dab]LV[aThr]CA-NH2; thioether N-14) | 0.01
6 | CC[C@H](C)[C@@H]1NC(=O)[C@H](Cc2ccc(-c3ccccc3)cc2)NC(=O)[C@H](C(C)C)NC(=O)[C@H](Cc2c[nH]c3ccccc23)NC(=O)[C@H](CC(=O)O)NC(=O)[C@H](Cc2ccc(O)cc2)NC(=O)[C@H](CC(N)=O)NC(=O)CSC[C@@H](C(=O)N[C@@H](C)C(N)=O)NC(=O)[C@H]([C@@H](C)O)NC(=O)[C@H](C(C)C)NC(=O)[C@H](CC2CCCCC2)NC(=O)[C@H](CCCNC(=N)N)NC(=O)[C@@H](CC(C)C)NC(=O)[C@H](C)N(C)C1=O [Compound 1495] ({CH2CO}-NYDWV[Bip]I[NMeA][dL]R[Cha]VTCA-NH2; thioether N-14) | 0.04
7 | CC(C)C[C@@H]1NC(=O)[C@H](CCCNC(=N)N)NC(=O)[C@@H](CC(C)C)NC(=O)[C@H](C)N(C)C(=O)[C@H](CCCNC(=N)N)NC(=O)[C@H](Cc2ccc(-c3ccccc3)cc2)NC(=O)[C@H](C(C)C)NC(=O)[C@H](Cc2c[nH]c3ccccc23)NC(=O)[C@H](CC(=O)O)NC(=O)[C@H](Cc2ccc(O)cc2)NC(=O)[C@H](CC(N)=O)NC(=O)CSC[C@@H](C(=O)NCC(N)=O)NC(=O)[C@H]([C@@H](C)O)NC(=O)[C@H](C(C)C)NC1=O [Compound 1244] ({CH2CO}-NYDWV[Bip]R[NMeA][dL]RLVTCG-NH2; thioether N-14) | 0.04
8 | CC(C)C[C@@H]1NC(=O)[C@H](Cc2c[nH]c3ccccc23)NC(=O)[C@H](CC(=O)O)NC(=O)[C@H](Cc2ccc(C(=O)O)cc2)NC(=O)[C@H](Cc2ccc(OCC(=O)O)cc2)NC(=O)CSC[C@@H](C(=O)N[C@H](C)C(N)=O)NC(=O)[C@H](CCC(=O)O)NC(=O)[C@H](C(C)(C)O)NC(=O)[C@H](CC2CCCCC2)NC(=O)[C@H](CCN)NC(=O)[C@@H](CC(C)C)NC(=O)[C@H](C)N(C)C(=O)[C@H](C(C)(C)O)NC(=O)[C@H](Cc2ccc(-c3ccccc3)cc2)NC1=O [Compound 1715] ({CH2CO}-Y(Carboxymethyl)[Phe(4-COOH)]DWL[Bip][Val(3-OH)][NMeA][dL][Dab][Cha][Val(3-OH)]EC[dA]-NH2; thioether N-14) | 0.06
9 | CC(C)C[C@@H]1NC(=O)[C@H](Cc2c[nH]c3ccccc23)NC(=O)[C@H](CC(=O)O)NC(=O)[C@H](Cc2ccc(O)cc2)NC(=O)[C@H](Cc2ccccc2)NC(=O)CSC[C@@H](C(=O)NCC(N)=O)NC(=O)[C@H]([C@@H](C)O)NC(=O)[C@H](C(C)C)NC(=O)[C@H](CC(C)C)NC(=O)[C@H](CC(N)=O)NC(=O)[C@@H](C)NC(=O)[C@H](C)N(C)C(=O)[C@H](C(C)C)NC(=O)[C@H](Cc2ccc(-c3ccccc3)cc2)NC1=O [Compound 1476] ({CH2CO}-FYDWL[Bip]V[NMeA][dA]NLVTCG-NH2; thioether N-14) | 0.06
10 | Cc1cccc(C[C@@H]2NC(=O)[C@H](CC(=O)O)NC(=O)[C@H](Cc3ccc(C(=O)O)cc3)NC(=O)[C@H](Cc3ccc(OCC(=O)O)cc3)NC(=O)CSC[C@@H](C(N)=O)NC(=O)[C@H](CCCCN)NC(=O)[C@H](C(C)C)NC(=O)[C@H](CC(C)C)NC(=O)[C@H](CC(N)=O)NC(=O)[C@@H](CC(C)C)NC(=O)[C@H](C)N(C)C(=O)[C@H](C(C)C)NC(=O)[C@H](Cc3ccc(-c4ccccc4)cc3)NC(=O)[C@H](CC(C)C)NC2=O)c1 [Compound 2257] ({CH2CO}-Y(Carboxymethyl)[Phe(4-COOH)]D[Phe(3-Me)]L[Bip]V[NMeA][dL]NLVKC-NH2; thioether N-14) | 0.06
11 | CC(C)C[C@@H]1NC(=O)[C@H](CCN)NC(=O)[C@@H](CC(C)C)NC(=O)[C@H](C)N(C)C(=O)[C@H](Cc2cnc[nH]2)NC(=O)[C@H](Cc2ccc(-c3ccccc3)cc2)NC(=O)[C@H](C(C)C)NC(=O)[C@H](Cc2c[nH]c3ccccc23)NC(=O)[C@H](CC(=O)O)NC(=O)[C@H](Cc2ccc(C(=O)O)cc2)NC(=O)[C@H](CC(N)=O)NC(=O)CSC[C@@H](C(=O)N[C@@H](C)C(N)=O)NC(=O)[C@H]([C@@H](C)O)NC(=O)[C@H](C(C)C)NC1=O [Compound 1383] ({CH2CO}-N[Phe(4-COOH)]DWV[Bip]H[NMeA][dL][Dab]LVTCA-NH2; thioether N-14) | 0.06
12 | Cc1cccc(C[C@@H]2NC(=O)[C@H](CC(=O)O)NC(=O)[C@H](Cc3ccc(OCC(=O)O)cc3)NC(=O)[C@H](Cc3ccncc3)NC(=O)CSC[C@@H](C(=O)N[C@@H](CCNC(=O)C(C)(C)C)C(N)=O)NC(=O)[C@H]([C@@H](C)O)NC(=O)[C@H](C(C)C)NC(=O)[C@H](CC3CCCCC3)NC(=O)[C@H](CCN)NC(=O)[C@@H](CC(C)C)NC(=O)[C@H](C)N(C)C(=O)[C@H](Cc3ccc(OCC(=O)O)cc3)NC(=O)[C@H](Cc3ccc(-c4ccccc4)cc3)NC(=O)[C@H](Cc3ccc(OCC(=O)O)cc3)NC2=O)c1 [Compound 1867] ({CH2CO}-[4Pal]Y(Carboxymethyl)D[Phe(3-Me)]Y(Carboxymethyl)[Bip]Y(Carboxymethyl)[NMeA][dL][Dab][Cha]VTC[Dab](Piv)-NH2; thioether N-14) | 0.03
13 | CC(C)C[C@@H]1NC(=O)[C@H](CCN)NC(=O)[C@@H](CC(C)C)NC(=O)[C@H](C)N(C)C(=O)[C@H](CCCNC(=N)N)NC(=O)[C@H](Cc2ccc(-c3cc(F)cc(F)c3)cc2)NC(=O)[C@H](C(C)C)NC(=O)[C@H](Cc2c[nH]c3ccccc23)NC(=O)[C@H](CC(=O)O)NC(=O)[C@H](Cc2ccc(O)cc2)NC(=O)[C@H](CC(N)=O)NC(=O)CSC[C@@H](C(=O)N[C@@H](C)C(N)=O)NC(=O)[C@H]([C@@H](C)O)NC(=O)[C@H](C(C)C)NC1=O [Compound 1220] ({CH2CO}-NYDWV[X29]R[NMeA][dL][Dab]LVTCA-NH2; thioether N-14) | 0.26
14 | CC[C@@H](C)[C@@H]1NC(=O)[C@H](Cc2ccc(-c3ccccc3)cc2)NC(=O)[C@H](CC(C)C)NC(=O)[C@H](Cc2cccc(C)c2)NC(=O)[C@H](CC(=O)O)NC(=O)[C@H](Cc2ccc(OCC(=O)O)cc2)NC(=O)[C@H](CN)NC(=O)CSC[C@@H](C(N)=O)NC(=O)[C@H](CO)NC(=O)[C@H](C(C)C)NC(=O)[C@H](CC(C)C)NC(=O)[C@H](CC(N)=O)NC(=O)[C@@H](CC(C)C)NC(=O)[C@H](C)N(C)C1=O [Compound 1640] ({CH2CO}-[Dap]Y(Carboxymethyl)D[Phe(3-Me)]L[Bip][aIle][NMeA][dL]NLVSC-NH2; thioether N-14) | 0.1
15 | CCC(C)[C@@H]1NC(=O)[C@H](Cc2ccc(-c3ccccc3)cc2)NC(=O)[C@H](CC(C)C)NC(=O)[C@H](Cc2c[nH]c3ccccc23)NC(=O)[C@H](CC(=O)O)NC(=O)[C@H](Cc2ccc(C(=O)O)cc2)NC(=O)[C@H](Cc2ccc(OCC(=O)O)cc2)NC(=O)CSC[C@@H](C(=O)N[C@@H](CCN)C(N)=O)NC(=O)[C@H](CO)NC(=O)[C@H](C(C)C)NC(=O)[C@H](CC2CCCCC2)NC(=O)[C@H](CCN)NC(=O)[C@@H](CC(C)C)NC(=O)[C@H](C)N(C)C1=O (stereo partly drawn) [Compound 1910] ({CH2CO}-Y(Carboxymethyl)[Phe(4-COOH)]DWL[Bip][Ile(3ξ)][NMeA][dL][Dab][Cha]VSC[Dab]-NH2; thioether N-14) | 0.02
